The text below walks through data of US12441722B2, “Therapeutic agents and methods of treatment” (University of Florida Research Foundation, Incorporated, priority 2020, dated 2025).

The first test concerns MOLT-4. Put plainly: Cell viability assay (tetrazolium-based MTS) in MOLT4 cells. As to conditions: Homo sapiens, MOLT-4, MOLT4 acute lymphoblastic leukemia cells, 48 h incubation. As to the method: Cancer cells from acute lymphoblastic leukemia (MOLT4) were incubated with increasing concentrations of compounds of Examples 1-9 for 48 h. Cell viability was measured by tetrazolium-based MTS assay. 5×10^4 to 1×10^5 suspension cells or 3×10^3 to 5×10^3 adherent cells were seeded and treated in 96-well plates for 48 h. The EC50 values of individual agents were calculated with GraphPad Prism.
By EC50 is commonly meant the concentration at which the effect is half-maximal. Low values mean a more potent agent, high ones a less potent agent. Turning to `Cc1ncsc1-c1ccc([C@H](C)NC(=O)[C@@H]2C[C@@H](O)CN2C(=O)[C@@H](NC(=O)CCCCCCCCCS(=O)(=O)NC(=O)c2nc(N3CCc4cccc(C(=O)Nc5nc6ccccc6s5)c4C3)ccc2-c2cnn(CC34CC5CC(CC(C5)C3)C4)c2C)C(C)(C)C)cc1` [degrader #15, 2-(5-(1-(adamantan-1-ylmethyl)-5-methyl-1H-pyrazol-4-yl)-6-(((10-(((S)-1-((2S,4R)-4-hydroxy-2-(((S)-1-(4-(4-methylthiazol-5-yl)phenyl)ethyl)carbamoyl)pyrrolidin-1-yl)-3,3-dimethyl-1-oxobutan-2-yl)amino)-10-oxodecyl)sulfonyl)carbamoyl)pyridin-2-yl)-N-(benzo[d]thiazol-2-yl)-1,2,3,4-tetrahydroisoquinoline-8-carboxamide], the EC50 lay within 10 to 100 nM.

On to `Cc1ncsc1-c1ccc([C@H](C)NC(=O)[C@@H]2C[C@@H](O)CN2C(=O)[C@@H](NC(=O)CCCS(=O)(=O)NC(=O)c2nc(N3CCc4cccc(C(=O)Nc5nc6ccccc6s5)c4C3)ccc2-c2cnn(CC34CC5CC(CC(C5)C3)C4)c2C)C(C)(C)C)cc1` [degrader #9, 2-(5-(1-(adamantan-1-ylmethyl)-5-methyl-1H-pyrazol-4-yl)-6-(((4-(((S)-1-((2S,4R)-4-hydroxy-2-(((S)-1-(4-(4-methylthiazol-5-yl)phenyl)ethyl)carbamoyl)pyrrolidin-1-yl)-3,3-dimethyl-1-oxobutan-2-yl)amino)-4-oxobutyl)sulfonyl)carbamoyl)pyridin-2-yl)-N-(benzo[d]thiazol-2-yl)-1,2,3,4-tetrahydroisoquinoline-8-carboxamide], for which the EC50 is < 10 nM.

Compound `Cc1c(-c2ccc(N3CCc4cccc(C(=O)Nc5nc6ccccc6s5)c4C3)nc2C(=O)NCCCCCCNc2cccc3c2C(=O)N(C2CCC(=O)NC2=O)C3=O)cnn1CC12CC3CC(CC(C3)C1)C2` (stereo not shown) [degrader #4, 2-(5-(1-(adamantan-1-ylmethyl)-5-methyl-1H-pyrazol-4-yl)-6-((6-((2-(2,6-dioxopiperidin-3-yl)-1,3-dioxoisoindolin-4-yl)amino)hexyl)carbamoyl)pyridin-2-yl)-N-(benzo[d]thiazol-2-yl)-1,2,3,4-tetrahydroisoquinoline-8-carboxamide] came in with an EC50 of 100 to 1000 nM.

The compound `Cc1ncsc1-c1ccc([C@H](C)NC(=O)[C@@H]2C[C@@H](O)CN2C(=O)[C@@H](NC(=O)CCCCCCCS(=O)(=O)NC(=O)c2nc(N3CCc4cccc(C(=O)Nc5nc6ccccc6s5)c4C3)ccc2-c2cc(C#N)n(CC34CC5CC(CC(C5)C3)C4)c2C)C(C)(C)C)cc1` [degrader #18, 2-(5-(1-(adamantan-1-ylmethyl)-5-cyano-2-methyl-1H-pyrrol-3-yl)-6-(((8-(((S)-1-((2S,4R)-4-hydroxy-2-(((S)-1-(4-(4-methylthiazol-5-yl)phenyl)ethyl)carbamoyl)pyrrolidin-1-yl)-3,3-dimethyl-1-oxobutan-2-yl)amino)-8-oxooctyl)sulfonyl)carbamoyl)pyridin-2-yl)-N-(benzo[d]thiazol-2-yl)-1,2,3,4-tetrahydroisoquinoline-8-carboxamide] had an EC50 of 10 to 100 nM.

With `Cc1ncsc1-c1ccc([C@H](CC(=O)NCCCCCNC(=O)c2nc(N3CCc4cccc(C(=O)Nc5nc6ccccc6s5)c4C3)ccc2-c2cnn(CC34CC5CC(CC(C5)C3)C4)c2C)NC(=O)[C@@H]2C[C@@H](O)CN2C(=O)[C@@H](NC(=O)C2(C#N)CC2)C(C)(C)C)cc1` [degrader #23, 2-(5-(1-(adamantan-1-ylmethyl)-5-methyl-1H-pyrazol-4-yl)-6-((5-((S)-3-((2S,4R)-1-((S)-2-(1-cyanocyclopropane-1-carboxamido)-3,3-dimethylbutanoyl)-4-hydroxypyrrolidine-2-carboxamido)-3-(4-(4-methylthiazol-5-yl)phenyl)propanamido)pentyl)carbamoyl)pyridin-2-yl)-N-(benzo[d]thiazol-2-yl)-1,2,3,4-tetrahydroisoquinoline-8-carboxamide], the EC50 lay within 10 to 100 nM.

Still in this test, the particulars now being: MOLT4 acute lymphoblastic leukemia cells, 48 h incubation.
Take `Cc1ncsc1-c1ccc([C@H](CC(=O)NCCCCCCCCNC(=O)c2nc(N3CCc4cccc(C(=O)Nc5nc6ccccc6s5)c4C3)ccc2-c2cnn(CC34CC5CC(CC(C5)C3)C4)c2C)NC(=O)[C@@H]2C[C@@H](O)CN2C(=O)[C@@H](NC(=O)C2(C#N)CC2)C(C)(C)C)cc1` [degrader #25, 2-(5-(1-(adamantan-1-ylmethyl)-5-methyl-1H-pyrazol-4-yl)-6-((8-((S)-3-((2S,4R)-1-((S)-2-(1-cyanocyclopropane-1-carboxamido)-3,3-dimethylbutanoyl)-4-hydroxypyrrolidine-2-carboxamido)-3-(4-(4-methylthiazol-5-yl)phenyl)propanamido)octyl)carbamoyl)pyridin-2-yl)-N-(benzo[d]thiazol-2-yl)-1,2,3,4-tetrahydroisoquninoline-8-carboxamide]: the EC50 is 100 to 1000 nM.

Compound `Cc1ncsc1-c1ccc([C@H](C)NC(=O)[C@@H]2C[C@@H](O)CN2C(=O)[C@@H](NC(=O)CCCCCCNC(=O)C23CC4CC(CC(Cn5ncc(-c6ccc(N7CCc8cccc(C(=O)Nc9nc%10ccccc%10s9)c8C7)nc6C(=O)O)c5C)(C4)C2)C3)C(C)(C)C)cc1` [degrader #43, 6-(8-(benzo[d]thiazol-2-ylcarbamoyl)-3,4-dihydroisoquinolin-2(1H)-yl)-3-(1-(((1S,3r)-3-((7-(((S)-1-((2S,4R)-4-hydroxy-2-(((S)-1-(4-(4-methylthiazol-5-yl)phenyl)ethyl)carbamoyl)pyrrolidin-1-yl)-3,3-dimethyl-1-oxobutan-2-yl)amino)-7-oxoheptyl)carbamoyl)adamantan-1-yl)methyl)-5-methyl-1H-pyrazol-4-yl)picolinic acid] came in with an EC50 of 100 to 1000 nM.

As for `Cc1c(-c2ccc(N3CCc4cccc(C(=O)Nc5nc6ccccc6s5)c4C3)nc2C(=O)NCCOCCOCCOCC#Cc2ccc3c(c2)CN(C2CCC(=O)NC2=O)C3=O)cnn1CC12CC3CC(CC(C3)C1)C2` (stereo not shown) [degrader #29, 2-(5-(1-(adamantan-1-ylmethyl)-5-methyl-1H-pyrazol-4-yl)-6-((2-(2-(2-((3-(2-(2,6-dioxopiperidin-3-yl)-1-oxoisoindolin-5-yl)prop-2-yn-1-yl)oxy)ethoxy)ethoxy)ethyl)carbamoyl)pyridin-2-yl)-N-(benzo[d]thiazol-2-yl)-1,2,3,4-tetrahydroisoguinoline-8-carboxamide], the EC50 is < 10 nM.

Compound `Cc1c(-c2ccc(N3CCc4cccc(C(=O)Nc5nc6ccccc6s5)c4C3)nc2C(=O)O)cnn1CC12CC3CC(C1)CC(C(=O)NCCOCCNc1cccc4c1C(=O)N(C1CCC(=O)NC1=O)C4=O)(C3)C2` (stereo not shown) [degrader #39, 6-(8-(benzo[d]thiazol-2-ylcarbamoyl)-3,4-dihydroisoquinolin-2(1H)-yl)-3-(1-(((1r,3r)-3-((2-(2-((2-(2,6-dioxopiperidin-3-yl)-1,3-dioxoisoindolin-4-yl)amino)ethoxy)ethyl)carbamoyl)adamantan-1-yl)methyl)-5-methyl-1H-pyrazol-4-yl)picolinic acid] showed an EC50 of 10 to 100 nM.

In turn, `Cc1c(-c2ccc(N3CCc4cccc(C(=O)Nc5nc6ccccc6s5)c4C3)nc2C(=O)O)cnn1CC12CC3CC(C1)CC(C(=O)NCCCCCCNc1cccc4c1C(=O)N(C1CCC(=O)NC1=O)C4=O)(C3)C2` (stereo not shown) [degrader #35, 6-(8-(benzo[d]thiazol-2-ylcarbamoyl)-3,4-dihydroisoquinolin-2(1H)-yl)-3-(1-(((1r,3r)-3-((6-((2-(2,6-dioxopiperidin-3-yl)-1,3-dioxoisoindolin-4-yl)amino)hexyl)carbamoyl)adamantan-1-yl)methyl)-5-methyl-1H-pyrazol-4-yl)picolinic acid] showed an EC50 of 10 to 100 nM.
